The values that follow are results of earlier work, collected in patent US20180194836A1, “PREVENTION OF METASTASIS AND RECURRENCE AFTER PRIMARY CANCER TREATMENT” (ENCYT TECHNOLOGIES, INC., priority 2014, published 2018).

Data set [1] has as its system premetastatic niche formation. The conditions noted are these: disruption of niche formation; cited from earlier work.
The next data set has as its system colon cancer. To be noted: cited from earlier work.

As for bevacizumab: antiangiogenic agent, in data set [1], the metastatic colonization result is on record as “prevented metastatic colonization”. The relapse entry in the data set on colon cancer (during the year on treatment, started 29-50 days post-operatively, with adjuvant chemotherapy) is listed as “delayed relapse”. Also, the overall survival result in the data set on colon cancer (versus chemotherapy-only group) is “no net benefit”.
